In test [1] the target is T1, BT1765 (Bacteroides thetaiotaomicron, UniProt Q8A6W1).
T1 sequence (Q8A6W1 26-627): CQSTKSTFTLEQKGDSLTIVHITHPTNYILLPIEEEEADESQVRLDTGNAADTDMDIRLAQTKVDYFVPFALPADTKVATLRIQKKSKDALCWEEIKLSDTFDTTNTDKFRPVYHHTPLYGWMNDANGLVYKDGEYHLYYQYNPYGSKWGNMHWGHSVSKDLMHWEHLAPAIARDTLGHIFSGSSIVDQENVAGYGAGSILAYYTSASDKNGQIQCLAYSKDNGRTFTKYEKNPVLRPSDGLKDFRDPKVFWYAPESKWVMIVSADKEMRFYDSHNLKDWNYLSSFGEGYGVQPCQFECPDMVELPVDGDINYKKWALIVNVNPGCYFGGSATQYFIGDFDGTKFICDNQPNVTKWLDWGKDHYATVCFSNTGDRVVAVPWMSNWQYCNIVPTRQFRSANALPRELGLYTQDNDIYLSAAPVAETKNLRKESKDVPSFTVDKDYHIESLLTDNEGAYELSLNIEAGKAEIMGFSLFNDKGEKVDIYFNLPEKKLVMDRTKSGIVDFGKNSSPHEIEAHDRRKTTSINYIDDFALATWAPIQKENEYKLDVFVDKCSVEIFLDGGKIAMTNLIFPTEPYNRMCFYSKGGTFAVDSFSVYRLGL
The experiment in a line: fructose release. The following applies: 20 mM Tris-HCl, pH 8.0, 37°C. Type of test: biochemical.

Test [2] concerns the target T2, BT3082 (Bacteroides thetaiotaomicron, UniProt Q8A373).
T2 sequence (Q8A373 21-548): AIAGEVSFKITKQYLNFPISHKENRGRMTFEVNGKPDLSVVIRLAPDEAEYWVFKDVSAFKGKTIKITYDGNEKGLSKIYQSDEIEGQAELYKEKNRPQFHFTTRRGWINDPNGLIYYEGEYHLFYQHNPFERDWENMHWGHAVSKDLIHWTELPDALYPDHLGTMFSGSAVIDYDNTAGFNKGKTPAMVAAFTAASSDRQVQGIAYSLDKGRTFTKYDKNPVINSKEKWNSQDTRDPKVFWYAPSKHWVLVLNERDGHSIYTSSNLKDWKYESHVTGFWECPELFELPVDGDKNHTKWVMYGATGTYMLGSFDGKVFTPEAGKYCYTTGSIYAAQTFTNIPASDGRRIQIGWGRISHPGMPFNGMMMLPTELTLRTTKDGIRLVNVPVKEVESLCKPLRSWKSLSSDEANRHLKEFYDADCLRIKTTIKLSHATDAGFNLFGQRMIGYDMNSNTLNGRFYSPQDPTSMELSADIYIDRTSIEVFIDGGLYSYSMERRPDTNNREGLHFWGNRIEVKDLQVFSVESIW
The experiment in a line: fructose release. The following applies: 20 mM Tris-HCl, pH 8.0, 37°C. Type of test: biochemical.

Test [3] addresses T3, BT1759 (Bacteroides thetaiotaomicron, UniProt Q8A6W7).
T3 sequence (Q8A6W7 29-610): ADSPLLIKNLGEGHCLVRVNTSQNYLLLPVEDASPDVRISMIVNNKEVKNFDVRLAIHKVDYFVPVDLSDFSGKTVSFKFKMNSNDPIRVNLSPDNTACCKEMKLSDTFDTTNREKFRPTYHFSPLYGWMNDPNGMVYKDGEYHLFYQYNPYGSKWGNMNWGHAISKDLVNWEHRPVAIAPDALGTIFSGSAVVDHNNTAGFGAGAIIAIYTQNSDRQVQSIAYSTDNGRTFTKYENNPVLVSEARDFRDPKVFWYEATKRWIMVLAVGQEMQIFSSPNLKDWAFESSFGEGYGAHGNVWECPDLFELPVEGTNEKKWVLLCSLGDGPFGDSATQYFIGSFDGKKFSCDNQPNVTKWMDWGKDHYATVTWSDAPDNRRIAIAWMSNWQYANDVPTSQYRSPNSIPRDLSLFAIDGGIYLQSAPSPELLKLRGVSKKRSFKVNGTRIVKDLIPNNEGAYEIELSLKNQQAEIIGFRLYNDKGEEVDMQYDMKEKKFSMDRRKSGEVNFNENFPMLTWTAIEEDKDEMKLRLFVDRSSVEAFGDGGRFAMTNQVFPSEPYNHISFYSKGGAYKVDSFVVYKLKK
The experiment in a line: fructose release. The test is classed as biochemical. As to conditions: 20 mM Tris-HCl, pH 8.0, 37°C.

The target of test [4] is T4, BT1754-PD (Bacteroides thetaiotaomicron, UniProt Q8A6X1).
T4 sequence (Q8A6X1 29-343): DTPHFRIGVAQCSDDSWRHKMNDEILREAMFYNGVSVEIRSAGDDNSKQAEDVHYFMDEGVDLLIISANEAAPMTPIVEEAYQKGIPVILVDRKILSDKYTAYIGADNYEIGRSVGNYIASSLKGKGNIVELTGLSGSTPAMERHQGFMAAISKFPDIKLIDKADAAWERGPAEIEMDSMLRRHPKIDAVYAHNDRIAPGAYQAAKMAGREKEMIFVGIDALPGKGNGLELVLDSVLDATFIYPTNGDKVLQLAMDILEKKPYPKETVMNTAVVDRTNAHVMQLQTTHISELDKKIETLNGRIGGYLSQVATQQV
Kind of test: isothermal titration calorimetry. Type of test: binding. The following applies: 20 mM Tris-HCl, pH 8.0; 1:1 stoichiometry, single site. For orientation: In ITC the heat of successive injections is recorded.

These results are taken from PMC2900928 (Cell, 2010).

A word on the pKd: it is the negative decadic logarithm of the Kd, by convention in mol/L. A high value points to a small Kd.

pKd: −log10 of the molar value.

`OC[C@H]1O[C@@](CO)(OC[C@H]2OC(O)(CO)[C@@H](O)[C@@H]2O)[C@@H](O)[C@@H]1O` (some centres unmarked) [L2, levanbiose]: in test [1], the KM result is reported as “the enzyme is also able to efficiently degrade levanbiose (Table S2)”.
Take `OC[C@H]1O[C@@](CO)(O[C@H]2O[C@H](CO)[C@@H](O)[C@H](O)[C@H]2O)[C@@H](O)[C@@H]1O` [sucrose]: the KM result in test [2] is “BT1759 and BT3082 also cleave sucrose”; in test [1] it was “BT1765 prefers sucrose over any of the other oligo- or polysaccharides tested”; in test [3], “BT1759 and BT3082 also cleave sucrose”.
On to `OCC1(O)OC[C@@H](O)[C@@H](O)[C@@H]1O` (some centres unmarked) [fructose], for which the negative logarithm of the Kd (pKd) in test [4] was ~5.70.
